One may read the melting point as the temperature, or range, at which the solid turns liquid. On to `Cc1cc2c(cc1C#Cc1ccccc1)NC(=O)CC(c1cccc(C#N)c1)=N2` [Example 4, 3-(8-Methyl-4-oxo-7-phenylethynyl-4,5-dihydro-3H-benzo[b][1,4]diazepin-2-yl)-benzonitrile], for which the melting point was 237 to 239 °C (dec.). In the case of `CN1CCN(c2cc3c(cc2C#Cc2ccccc2)NC(=O)CC(c2cccc(C#N)c2)=N3)CC1` [Example 5, 3-[8-(4-Methyl-piperazin-1-yl)-4-oxo-7-phenylethynyl-4,5-dihydro-3H-benzo[b][1,4]diazepin-2-yl]-benzonitrile] it was 222 to 224 °C (dec.); in that of `N#Cc1cccc(C2=Nc3cc(N4CCS(=O)(=O)CC4)c(C#Cc4ccccc4)cc3NC(=O)C2)c1` [Example 6, 3-[8-(1,1-Dioxo-thiomorpholin-4-yl)-4-oxo-7-phenylethynyl-4,5-dihydro-3H-benzo[b][1,4]diazepin-2-yl]-benzonitrile], > 250 °C (dec.); in that of `N#Cc1cccc(C2=Nc3cc(N4CCC5(CC4)OCCO5)c(C#Cc4ccccc4)cc3NC(=O)C2)c1` [Example 9, 3-[8-(1,4-Dioxa-8-aza-spiro[4.5]dec-8-yl)-4-oxo-7-phenylethynyl-4,5-dihydro-3H-benzo[b][1,4]diazepin-2-yl]-benzonitrile], 239 to 243 °C (dec.). In the case of `CN(C)CCSc1cc2c(cc1C#Cc1ccccc1)NC(=O)CC(c1cccc(C#N)c1)=N2` [Example 11, 3-[8-(2-Dimethylamino-ethylsulfanyl)-4-oxo-7-phenylethynyl-4,5-dihydro-3H-benzo[b][1,4]diazepin-2-yl]-benzonitrile] it was 197 °C (dec.). `N#Cc1cccc(C2=Nc3cc(SCC(=O)O)c(C#Cc4ccccc4)cc3NC(=O)C2)c1` [Example 13, [4-(3-Cyano-phenyl)-2-oxo-8-phenylethynyl-2,3-dihydro-1H-benzo[b][1,4]diazepin-7-ylsulfanyl]-acetic acid]: the melting point was 202 °C (dec.). On to `COC(=O)Cc1cc2c(cc1C#Cc1ccccc1)NC(=O)CC(c1cccc(C#N)c1)=N2` [Example 14, [4-(3-Cyano-phenyl)-2-oxo-8-phenylethynyl-2,3-dihydro-1H-benzo[b][1,4]diazepin-7-yl]-acetic acid methyl ester], for which the melting point is 236 °C (dec.). In the case of `COCCOc1cc2c(cc1C#Cc1ccccc1)NC(=O)CC(c1cccc(C#N)c1)=N2` [Example 18, 3-[8-(2-Methoxy-ethoxy)-4-oxo-7-phenylethynyl-4,5-dihydro-3H-benzo[b][1,4]diazepin-2-yl]-benzonitrile] it was 174 to 176 °C. In the case of `COC(=O)c1cc2c(cc1C#Cc1ccccc1)NC(=O)CC(c1cccc(C#N)c1)=N2` [Example 19, 4-(3-Cyano-phenyl)-2-oxo-8-phenylethynyl-2,3-dihydro-1H-benzo[b][1,4]diazepine-7-carboxylic acid methyl ester] it was more than 250 °C; in that of `N#Cc1cccc(C2=Nc3cc(OCC(=O)O)c(C#Cc4ccccc4)cc3NC(=O)C2)c1` [Example 22, [4-(3-Cyano-phenyl)-2-oxo-8-phenylethynyl-2,3-dihydro-1H-benzo[b][1,4]diazepin-7-yloxy]-acetic acid], 257 °C (dec.); in that of `N#Cc1cccc(C2=Nc3cc(OCC(O)CO)c(C#Cc4ccccc4)cc3NC(=O)C2)c1` (stereo not shown) [Example 24, 3-[8-(2,3-Dihydroxy-propoxy)-4-oxo-7-phenylethynyl-4,5-dihydro-3H-benzo[b][1,4]diazepin-2-yl]-benzonitrile], 230 to 234 °C (dec.). In the case of `CCOCc1cc2c(cc1C#Cc1ccccc1)NC(=O)CC(c1cccc(C#N)c1)=N2` [Example 29, 3-(8-Ethoxymethyl-4-oxo-7-phenylethynyl-4,5-dihydro-3H-benzo [b][1,4]diazepin-2-yl)-benzonitrile] it was 229 °C; in that of `CC(C)(C)C(=O)OCc1cc2c(cc1C#Cc1ccccc1)NC(=O)CC(c1cccc(C#N)c1)=N2` [Example 30, 2,2-Dimethyl-propionic acid 4-(3-cyano-phenyl)-2-oxo-8-phenylethynyl-2,3-dihydro-1H-benzo[b][1,4]diazepin-7-ylmethyl ester], 218 °C; in that of `N#Cc1cccc(C2=Nc3cc(CO)c(C#Cc4ccccc4)cc3NC(=O)C2)c1` [Example 31, 3-(8-Hydroxymethyl-4-oxo-7-phenylethynyl-4,5-dihydro-3H-benzo[b][1,4]diazepin-2-yl)-benzonitrile], more than 255 °C.

With `COC1CCN(c2cc3c(cc2C#Cc2ccccc2)NC(=O)CC(c2cccc(-n4ccnc4)c2)=N3)CC1` [Example 33, 4-(3-Imidazol-1-yl-phenyl)-7-(4-methoxy-piperidin-1-yl)-8-phenylethynyl-1,3-dihydro-benzo[b][1,4]diazepin-2-one], the melting point was 222 °C. In the case of `COC1CCN(c2cc3c(cc2C#Cc2ccccc2)NC(=O)CC(c2cccc(C#N)c2)=N3)CC1` [Example 34, 3-[8-(4-Methoxy-piperidin-1-yl)-4-oxo-7-phenylethynyl-4,5-dihydro-3H-benzo[b][1,4]diazepin-2-yl]-benzonitrile] it was 250 to 251 °C. In the case of `N#CCOc1cc2c(cc1C#Cc1ccccc1)NC(=O)CC(c1cccc(-n3ccnc3)c1)=N2` [Example 35, [4-(3-Imidazol-1-yl-phenyl)-2-oxo-8-phenylethynyl-2,3-dihydro-1H-benzo[b][1,4]diazepin-7-yloxy]-acetonitrile] it was 214 °C; in that of `N#CCOc1cc2c(cc1C#Cc1ccccc1)NC(=O)CC(c1cccc(C#N)c1)=N2` [Example 36, 3-(8-Cyanomethoxy-4-oxo-7-phenylethynyl-4,5-dihydro-3H-benzo[b][1,4]diazepin-2-yl)-benzonitrile], 212 °C. For the compound `CN(CCO)c1cc2c(cc1C#Cc1ccc(F)cc1)NC(=O)CC(c1cccc(-n3ccnc3)c1)=N2` [Example 38, 8-(4-Fluoro-phenylethynyl)-7-[(2-hydroxy-ethyl)-methyl-amino]-4-(3-imidazol-1-yl-phenyl)-1,3-dihydro-benzo[b][1,4]diazepin-2-one], the melting point was 217 °C (dec.).

As for `O=C1CCN(c2cc3c(cc2C#Cc2ccccc2)NC(=O)CC(c2cccc(-n4ccnc4)c2)=N3)CC1` [Example 39, 4-(3-Imidazol-1-yl-phenyl)-7-(4-oxo-piperidin-1-yl)-8-phenylethynyl-1,3-dihydro-benzo[b][1,4]diazepin-2-one], the melting point was 231 °C (dec.). In the case of `CC(C)(C)NC(=O)COc1cc2c(cc1C#Cc1ccccc1)NC(=O)CC(c1cccc(C#N)c1)=N2` [Example 40, N-tert.-Butyl-2-[4-(3-cyano-phenyl)-2-oxo-8-phenylethynyl-2,3-dihydro-1H-benzo[b][1,4]diazepin-7-yloxy]-acetamide] it was more than 250 °C; in that of `CONC(=O)COc1cc2c(cc1C#Cc1ccccc1)NC(=O)CC(c1cccc(C#N)c1)=N2` [Example 41, 2-[4-(3-Cyano-phenyl)-2-oxo-8-phenylethynyl-2,3-dihydro-1H-benzo[b][1,4]diazepin-7-yloxy]-N-methoxy-acetamide], more than 250 °C. In the case of `O=C1CC(c2cccc(-n3ccnc3)c2)=Nc2cc(N3CCC(O)CC3)c(-c3ccc(F)cc3)cc2N1` [Example 43, 8-(4-Fluoro-phenyl)-7-(4-hydroxy-piperidin-1-yl)-4-(3-imidazol-1-yl-phenyl)-1,3-dihydro-benzo[b][1,4]diazepin-2-one] it was 238 to 240 °C. Compound `O=C1CC(c2cccc(-n3ccnc3)c2)=Nc2cc(OCCO)c(C#Cc3ccc(F)cc3)cc2N1` [Example 44, 8-(4-Fluoro-phenylethynyl)-7-(2-hydroxy-ethoxy)-4-(3-imidazol-1-yl-phenyl)-1,3-dihydro-benzo[b][1,4]diazepin-2-one] had a melting point of 220 to 222 °C. In the case of `O=C1CC(c2cccc(-n3ccnc3)c2)=Nc2cc(CO)c(-c3ccc(F)cc3)cc2N1` [Example 46, 8-(4-Fluoro-phenyl)-7-hydroxymethyl-4-(3-imidazol-1-yl-phenyl)-1,3-dihydro-benzo[b][1,4]diazepin-2-one] it was 180 to 195 °C; in that of `N#CCOc1cc2c(cc1-c1ccc(F)cc1)NC(=O)CC(c1cccc(-n3ccnc3)c1)=N2` [Example 47, [8-(4-Fluoro-phenyl)-4-(3-imidazol-1-yl-phenyl)-2-oxo-2,3-dihydro-1H-benzo[b][1,4]diazepin-7-yloxy]-acetonitrile], 164 °C. In the case of `CN(C)Cc1cc2c(cc1-c1ccc(F)cc1)NC(=O)CC(c1cccc(-n3ccnc3)c1)=N2` [Example 48, 7-Dimethylaminomethyl-8-(4-fluoro-phenyl)-4-(3-imidazol-1-yl-phenyl)-1,3-dihydro-benzo[b][1,4]diazepin-2-one] it was 115 to 140 °C (dec.); in that of `CC1(C)OC2CN(c3cc4c(cc3-c3ccc(F)cc3)NC(=O)CC(c3cccc(-n5ccnc5)c3)=N4)CC2O1` (stereo not shown) [Example 49, 7-(2,2-Dimethyl-tetrahydro-[1,3]dioxolo [4,5-c]pyrrol-5-yl)-8-(4-fluoro-phenyl)-4-(3-imidazol-1-yl-phenyl)-1,3-dihydro-benzo[b][1,4]diazepin-2-one], 240 °C (dec.); in that of `O=C1CC(c2cccc(-n3ccnc3)c2)=Nc2cc(N3C[C@@H](O)[C@@H](O)C3)c(-c3ccc(F)cc3)cc2N1` [Example 50, 7-(cis-3,4-Dihydroxy-pyrrolidin-1-yl)-8-(4-fluoro-phenyl)-4-(3-imidazol-1-yl-phenyl)-1,3-dihydro-benzo[b][1,4]diazepin-2-one], 244 °C.

Turning to `COc1cc2c(cc1-c1ccc(F)cc1)NC(=O)CC(c1cccc(-n3ccnc3)c1)=N2` [Example 51, 8-(4-Fluoro-phenyl)-4-(3-imidazol-1-yl-phenyl)-7-methoxy-1,3-dihydro-benzo[b][1,4]diazepin-2-one], the melting point is 221 °C (dec.). In the case of `O=C1CCN(c2cc3c(cc2-c2ccc(F)cc2)NC(=O)CC(c2cccc(-n4ccnc4)c2)=N3)CC1` [Example 52, 8-(4-Fluoro-phenyl)-4-(3-imidazol-1-yl-phenyl)-7-(4-oxo-piperidin-1-yl)-1,3-dihydro-benzo[b][1,4]diazepin-2-one] it was 204 °C.

(Values after patent US6407094B1, “Glutamate receptor antagonists” (Hoffmann-la Roche Inc., priority 1999, dated 2002).)
